Molecules are shown by their SMILES.

In this assay the target is Gastrin-releasing peptide receptor (Homo sapiens, UniProt P30550). The assay is described as follows: BB2 Receptor Antagonistic Activity. Here is the method:
A BB2 receptor binding test was carried out using a membrane sample prepared from a human prostate cancer-derived PC-3 cell. The PC-3 cell was cultured using an RPMI-1640 medium containing 5% fetal bovine serum, and then a membrane sample was prepared by the following methods. The cells detached by a trypsin treatment were added with a 50 mM Tris-HCl buffer (pH 7.4, containing 0.2 mg/ml trypsin inhibitor and 0.2 mg/ml benzamidine), and homogenized by Polytron. The cell suspension was centrifuged at 1,500 rpm for 10 minutes, and the supernatant thus obtained was subjected to 1 hour of ultracentrifugation at 37,000×g. The precipitate was suspended in the aforementioned buffer to a concentration of 0.4 mg protein/ml, and stored at −80° C.The BB2 receptor binding test was carried out by the following method, and the receptor antagonistic activity of a compound to be tested was calculated. […] Non-specific binding was measured using 1 μM of bombesin. […] The radioactivity on the filter was measured using a microplate scintillation counter (Top Count, Perkin-Elmer Co., Ltd.).

Chain of Gastrin-releasing peptide receptor (P30550 whole entry): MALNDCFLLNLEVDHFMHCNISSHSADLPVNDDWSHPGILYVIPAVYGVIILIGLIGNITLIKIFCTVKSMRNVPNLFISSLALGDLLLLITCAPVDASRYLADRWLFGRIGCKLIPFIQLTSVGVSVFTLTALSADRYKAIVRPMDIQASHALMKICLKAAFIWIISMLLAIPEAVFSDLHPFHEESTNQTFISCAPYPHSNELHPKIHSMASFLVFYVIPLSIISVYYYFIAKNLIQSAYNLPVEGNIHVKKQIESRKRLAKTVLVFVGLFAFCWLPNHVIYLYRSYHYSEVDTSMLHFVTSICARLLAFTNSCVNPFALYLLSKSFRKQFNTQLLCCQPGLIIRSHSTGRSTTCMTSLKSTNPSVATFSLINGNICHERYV

The term IC50 denotes the point on the concentration scale where inhibition reaches its midpoint. A low value points to higher potency. The compound `O=C(NCCc1ccccc1)[C@@H]1c2ccccc2C(=O)N([C@H](CO)c2ccccc2)[C@H]1c1ccc(Cl)cc1Cl` [US10532048, Example 62] showed an IC50 of 18.3 nM.
